{
  "source": "ChEMBL document CHEMBL4177612",
  "about": "“Discovery of tranylcypromine analogs with an acylhydrazone substituent as LSD1 inactivators: Design, synthesis and their biological evaluation” (Bioorg Med Chem Lett, 2017)",
  "type_in_all_cases": "functional, cell-based",
  "key": {"MGC-803 [1]": {"system": "MGC-803", "test": "Effect on LSD1 level in human MGC803 cells at 1 to 4 uM after 4 days by immunofluorescence analysis"}, "MGC-803 [2]": {"system": "MGC-803", "test": "Antiinvasive activity against human MGC803 cells at 0.25 to 1 uM after 24 hrs by DAPI staining based matrigel coated transwell assay"}, "MGC-803 [3]": {"system": "MGC-803", "test": "Anti-migratory activity against human MGC803 cells after 24 hrs by DAPI staining based transwell assay"}},
  "note": "Calls of active or inactive are those of the source. No cut-off for these calls is given here.",
  "data": [
    {"compound": "CCN(CC)c1ccc(/C=N/NC(=O)CN[C@@H]2C[C@H]2c2ccc(F)c(F)c2)c(O)c1", "values": [
      {"measurement": "Activity", "setting": "MGC-803 [1]", "value": "inactive"},
      {"measurement": "Activity", "setting": "MGC-803 [2]", "value": "Active"},
      {"measurement": "Activity", "setting": "MGC-803 [3]", "value": "Dose-dependent effect"}
    ]}
  ]
}
